The values that follow come from patent US20100160431A1, “Methods and Compositions for the Treatment of Viral Infections” (priority 2006, published 2010).

A short description of data set [1]: Release profile of amantadine and oseltamivir combination (USP II Paddle system, water). Format: physicochemical. The source says: The cumulative fraction is the amount of drug substance released from the formulation matrix to the serum or gut environment (e.g., U.S. Pat. No. 4,839,177) or as measured with a USP II Paddle system using water as the dissolution medium.

Data set [2] is described as follows: Time to steady state concentration with extended release amantadine or rimantadine. The following applies: patient with influenza A; 100 mg or more once daily; formulated as in Example 5.
For data set [3] the following is noted: in vivo; cited from earlier work.
For data set [4] the following is noted: cited from earlier work; for Human PK T½ / Tmax: humans.

For the compound `NC12CC3CC(CC(C3)C1)C2` [Amantadine, amantadine], the cum. fraction in data set [1] (Time 1) came to 0.2; in data set [1] (Time 2), 0.3; in data set [1] (Time 4) it was 0.4; in data set [1] (Time 8), 0.5; in data set [1] (Time 12), 0.6; in data set [1] (Time 16), 0.7. Moreover, the cum. fraction in data set [1] (Time 20) was 0.8; in data set [1] (Time 24) it was 0.9.

With `CC(N)C12CC3CC(CC(C3)C1)C2` (centres unmarked) [Rimantadine, rimantadine], in data set [2], the “time to therapeutically effective steady state serum concentration” value is “three”. Besides, the “Dose Dependent Toxicity” value in data set [3] is on record as “Insomnia”.

Regarding `CCOC(=O)C1=C[C@@H](OC(CC)CC)[C@H](NC(C)=O)[C@@H](N)C1` [oseltamivir/TAMIFLU ®, oseltamivir], the cum. fraction stood at 0.1 in data set [1] (Time 1); 0.15 in data set [1] (Time 2); 0.2 in data set [1] (Time 4); 0.35 in data set [1] (Time 8); 0.5 in data set [1] (Time 12); 0.65 in data set [1] (Time 16). Further, the values for the cum. fraction in data set [1] (Time 20) and in data set [1] (Time 24) were 0.8 and 1, respectively. Moreover, the T½ result in data set [4] (head of Table 4) was “T½ = 3 hrs”. The “Human PK T½” value in data set [4] is 3 h. The “Tmax” value in data set [4] is 3 to 4 h.

As for `CC(=O)N[C@H]1[C@H]([C@H](O)[C@H](O)CO)OC(C(=O)O)=C[C@@H]1NC(=N)N` [zanamivir/RELENZA ®, zanamivir], in data set [4], the “Human PK T½” value was 2.5 to 5.1 h and the “Tmax” value was 1 to 2 h.

The term Tmax denotes the time from dosing to the highest level.
